Measured values published in ChEMBL document CHEMBL3832051, “DailyMed|setid=970a767a-7a65-4cdf-84fe-4dbe0a77b80a | METRONIDAZOLE - metronidazole lotion|Physicians Total Care, Inc”.

Experiment: Evaluation of pharmacokinetic parameters for metronidazole following topical administration of 7.5 mg of metronidazole (1 g metronidazole topical lotion) for 4 days to the faces of 8 patients.
Type: ADME, organism-based
Parameters: dose 7.5 mg, route topical
Settings: human, in vivo, topical or ocular, dosed compound id 31, dosed compound name METRONIDAZOLE, gender male and female, regimen Twice daily, study dosing duration 4 days, tissue Plasma

With `Cc1ncc([N+](=O)[O-])n1CCO` [METRONIDAZOLE] the Cmax (sampling time1 5 days) was 96 ng/mL and the AUC at 96 h (read-out: AUC(0-24)) was 962 ng·h/mL.
